Assays:
Assay type in all cases: functional
Staphylococcus aureus [1] = assay: Antibiofilm activity against Staphylococcus aureus SH1000 assessed as inhibition of planktonic bacterial growth after 24 hrs by turbidity method; details: SH1000, 24 h
Staphylococcus aureus [2] = assay: Antibiofilm activity against Staphylococcus aureus SH1000 after 24 hrs by plate count method
Staphylococcus aureus [3] = assay: Antibacterial activity against Staphylococcus aureus SH1000 in stationary phase assessed as reduction in cell viability at 4 times MIC after 2 hrs by time kill kinetic assay relative to control
Candida albicans [4] = assay: Antimicrobial activity against Candida albicans ATCC-MYA-273 assessed as reduction in planktonic cell viability at 0.5 uM irradiated with blue light at 12 J/cm'2 for 15 mins by ten fold serial dilution method
Candida albicans [5] = assay: Antibiofilm activity against Candida albicans ATCC-MYA-273 assessed as cell killing at 1 uM irradiated with blue light at 48 J/cm'2 for 4 hrs by microplate reader method
Staphylococcus aureus [6] = assay: Antibacterial activity against methicillin-resistant Staphylococcus aureus ATCC BAA-44 infected in porcine stratum corneum assessed as reduction in viable cells at 10 uM preincubated for 1 hr with bacteria prior to application of bacteria on skin incubated for 5 to 240 mins followed by irradiation with blue light
Staphylococcus aureus [7] = assay: Antibacterial activity against methicillin-resistant Staphylococcus aureus 180 assessed as planktonic cell killing at 5 ug/ml after 15 mins followed by irradiation with paterson lamp at 100 J/cm'2 by serial ten fold dilution method
Burkholderia cepacia = assay: Antibacterial activity against Burkholderia cepacia assessed as cell killing at 250 ug/ml after 15 mins followed by irradiation with paterson lamp at 100 J/cm'2 by serial ten fold dilution method
Staphylococcus aureus [8] = assay: Antibacterial activity against methicillin-resistant Staphylococcus aureus 180 assessed as planktonic cell killing at 50 ug/ml after 15 mins followed by irradiation with paterson lamp at 100 J/cm'2 by serial ten fold dilution method
Pseudomonas aeruginosa [9] = assay: Antibacterial activity against Pseudomonas aeruginosa ATCC 9027 assessed as planktonic cell killing using laser illumination at 15.5 J/cm'2
Pseudomonas aeruginosa [10] = assay: Antibiofilm activity against Pseudomonas aeruginosa ATCC 9027 assessed as decrease in cell viability using laser illumination at 13.2 J
Trichophyton rubrum = assay: Antifungal activity against Trichophyton rubrum infected in mouse assessed as reduction in fungal burden using light source at 42 J/cm'2 for 10 mins for 7 days; parameters: scale not given: the % may be the effect or the level left

With `C[N+](C)(C)CCCOc1cccc(-c2c3nc(cc4ccc([nH]4)c(-c4cccc(OCCC[N+](C)(C)C)c4)c4nc(cc5ccc2[nH]5)C=C4)C=C3)c1.[Cl-].[Cl-]` the MIC (Staphylococcus aureus [1]) was 1 µg/mL, the MBEC (Staphylococcus aureus [2]) was 2 mg/L and the Activity (Staphylococcus aureus [3]) was “>=5 deltalog10CFU/ml”.
For `C[N+](C)(C)CCCOc1ccc(-c2c3nc(cc4ccc([nH]4)c(-c4ccc(OCCC[N+](C)(C)C)cc4)c4nc(cc5ccc2[nH]5)C=C4)C=C3)cc1.[Cl-].[Cl-]` [EXEPORFINIUM CHLORIDE], the MIC (Staphylococcus aureus [1]) was 1 µg/mL, the MBEC (Staphylococcus aureus [2]) was 2 mg/L and the Activity (Staphylococcus aureus [3]) was “>=5 deltalog10CFU/ml”. The Activity (Candida albicans [4]) was 6 deltalog10CFU/ml, the Activity (Candida albicans [5]) was 5 deltalog10CFU/ml and the Activity (Staphylococcus aureus [6]) was 3.6 deltalog10CFU/ml.
Cetyltrimethylammonium bromide was tested, and the Activity (deltalog10CFU/ml) (Staphylococcus aureus [3]) was 3.
For `C[n+]1ccc(-c2c3nc(c(-c4cc[n+](C)cc4)c4ccc([nH]4)c(-c4cc[n+](C)cc4)c4nc(c(-c5cc[n+](C)cc5)c5ccc2[nH]5)C=C4)C=C3)cc1.Cc1ccc(S(=O)(=O)[O-])cc1.Cc1ccc(S(=O)(=O)[O-])cc1.Cc1ccc(S(=O)(=O)[O-])cc1.Cc1ccc(S(=O)(=O)[O-])cc1`, the Activity (Staphylococcus aureus [7]) was 100% and the Activity (Burkholderia cepacia) was 99.9%.
For `CN(C)c1ccc2nc3ccc(N(C)C)cc3[s+]c2c1.[Cl-]` [METHYLENE BLUE ANHYDROUS], the Activity (Staphylococcus aureus [8]) was 100%, the Activity (Burkholderia cepacia) was 100% and the Activity (Pseudomonas aeruginosa [9]) was 100%. For the same molecule, the Activity (Pseudomonas aeruginosa [10]) was greater than 99.999%.
With `Cc1cc2nc3ccc(N(C)C)cc3[s+]c2cc1N.[Cl-]` [TOLONIUM CHLORIDE] the Activity (Trichophyton rubrum) was 87%.
`N=C(NCCCCCCNC(=N)NC(=N)Nc1ccc(Cl)cc1)NC(=N)Nc1ccc(Cl)cc1` [CHLORHEXIDINE] showed an Activity (Staphylococcus aureus [3]) of 3 deltalog10CFU/ml.

— ChEMBL document CHEMBL3822367, “Use of Photosensitizers in Semisolid Formulations for Microbial Photodynamic Inactivation” (2016)
